Experimental data reported in US11286268B1, “EIF4E-inhibiting compounds and methods” (EFFECTOR THERAPEUTICS, INC., priority 2019, dated 2022).
Like-named read-outs stand apart in the source and are kept apart here.

Molecular target: recombinant eIF4E (Homo sapiens (Human), UniProt P06730)
Experiment: Fluorescence polarization competition assay for eIF4E binding potency
In short: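 Competitive displacement format: compounds compete with a fluorescent m7GDP tracer (20 nM) for 75 nM recombinant eIF4E. Incubation is 30 min at room temperature, protected from light, with 1% DMSO. Polarization read gives IC50 over eight 3-fold concentrations.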

[1] = inhibition of eIF4E/EDA-m7GDP-ATTO-550 binding, calculated IC50 values, Table 4B, read-out: IC50
[2] = fluorescence polarization competition, 75 nM recombinant eIF4E, 20 nM EDA-m7GDP-ATTO-550, IC50 class, read-out: elF4E FP
[3] = inhibition of eIF4E/EDA-m7GDP-ATTO-550 binding by 50%, Table 4B calculated values, read-out: IC50

Chain of recombinant eIF4E (P06730 whole entry): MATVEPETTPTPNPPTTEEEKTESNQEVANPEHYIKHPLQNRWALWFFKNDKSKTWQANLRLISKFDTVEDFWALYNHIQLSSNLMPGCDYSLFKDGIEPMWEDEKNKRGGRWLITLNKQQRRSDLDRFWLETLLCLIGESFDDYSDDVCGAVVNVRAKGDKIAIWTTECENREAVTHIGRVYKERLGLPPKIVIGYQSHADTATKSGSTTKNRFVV

In the case of `Cc1nc2cc3c(c(C#N)c2c(=O)n1CCOc1ccc(Cl)cc1-c1ccnc2c(C(=O)O)csc12)S(=O)(=O)N(C)CC3` [compound 1954], the IC50 [1] is reported as 17 nM.

`Cc1nc2ccc(Cl)c(C#N)c2c(=O)n1CCOc1ccc(Cl)cc1-c1cccc(C(=O)O)c1` [compound 141] was tested, and the IC50 [2] was under 50 nM and the IC50 [3] was 44.2 nM.

`COc1sc2c(-c3cc(Cl)ccc3OCCn3c(C)nc4cnc(C5CC5)c(C#N)c4c3=O)ccnc2c1C(=O)O` [compound 772] showed an IC50 [2] of under 50 nM and an IC50 [3] of 14.1 nM.

Work on `Cc1nc2cnc(N(C)C3CCN(CCOC(F)F)CC3)c(C#N)c2c(=O)n1CC#Cc1ccc(Cl)cc1-c1ccnc2c(C(=O)O)csc12` [compound 1503] yielded an IC50 [1] of 19.2 nM.

For `Cc1cc2cc(C#N)c(CN(C)C)c(C#N)c2c(=O)n1CCOc1ccc(Cl)cc1-c1ccnc2c(C(=O)O)csc12` [compound 511], the IC50 [2] was 50 to 1000 nM and the IC50 [3] was 88 nM.

Molecule `CC#Cc1nc2c(=O)n(CCOc3ccc(Cl)cc3-c3cc(C)nc4c(C(=O)O)csc34)c(C)nc2cc1C(F)(F)F` [compound 784] has an IC50 [2] of under 50 nM and an IC50 [3] of 13.7 nM.

In the case of `Cc1cc2c(=O)n(CCOc3ccc(Cl)cc3-c3cccc(C(=O)O)c3)cnc2cn1` [compound 138], the IC50 [2] is reported as 50 to 1000 nM and the IC50 [3] is reported as 279 nM.

`Cc1c(CC#Cc2ccc(Cl)cc2-c2ccnc3c(C(=O)O)csc23)c(=O)c2c(C#N)c(Cl)c(C(F)(F)F)cc2n1C` [compound 669] was tested, and the IC50 [2] was under 50 nM and the IC50 [3] was 36.4 nM.

Molecule `Cc1ccc(-c2c(C(F)(F)F)cc3nc(C)n(CCOc4ccc(Cl)cc4-c4cc(C)nc5c(C(=O)O)csc45)c(=O)c3c2C#N)cn1` [compound 1910] has an IC50 [1] of 47.4 nM.

Work on `Cc1nc2cc(S(C)(=O)=O)c(N3CCN(C)CC3)c(C#N)c2c(=O)n1CCOc1ccc(Cl)cc1-c1ccnc2c(C(=O)O)csc12` [compound 1296] yielded an IC50 [1] of 27 nM.

In the case of `Cc1cc(-c2cc(Cl)ccc2OCCn2c(C)nc3cc(CCN(C)C)c(OC(F)F)c(C#N)c3c2=O)c2scc(C(=O)O)c2n1` [compound 607], the IC50 [2] is reported as under 50 nM and the IC50 [3] is reported as 5.5 nM.

Work on `Cc1nc(-c2ccccc2C(F)(F)F)c(C#N)c2c(=O)n(CCOc3ccc(Cl)cc3-c3ccnc4c(C(=O)O)csc34)c(C)nc12` [compound 1148] yielded an IC50 [2] of under 50 nM and an IC50 [3] of 35.6 nM.

For `Cc1nc2cnc(N(C)C3CCN(C4CC(F)(F)C4)CC3)c(C#N)c2c(=O)n1CC#Cc1ccc(Cl)cc1-c1ccnc2c(C(=O)NS(=O)(=O)Cc3ccccn3)csc12` [compound 1832], the IC50 [1] was 20.5 nM.

For `Cc1cc(-c2cc(Cl)ccc2C#CCn2c(C)nc3cc(C(F)(F)F)c(N4CCN(C)CC4)c(C#N)c3c2=O)c2scc(C(=O)O)c2n1` [compound 1213], the IC50 [2] was under 50 nM and the IC50 [1] was 42.7 nM.

Work on `Cc1cc(-c2cc(Cl)ccc2OCCn2c(C)nc3cc(Cl)c(O)c(C#N)c3c2=O)c2scc(C(=O)O)c2n1` [compound 695] yielded an IC50 [2] of under 50 nM and an IC50 [3] of 1.05 nM.

For `Cc1cc(F)c(-c2c(C(F)(F)F)cc3nc(C)n(CCOc4ccc(Cl)cc4-c4cc(C)nc5c(C(=O)O)csc45)c(=O)c3c2C#N)cn1` [compound 1388], the IC50 [1] was 36.2 nM.

`Cc1nc2cnc(N(C)C3COC3)c(C#N)c2c(=O)n1CC#Cc1ccc(Cl)cc1-c1ccnc2c(C(=O)O)csc12` [compound 1534] gave an IC50 [1] of 15.8 nM.

`Cc1cc(-c2cc(Cl)ccc2OCCn2c(C)nc3c(C)nc(CN(C)C)c(C#N)c3c2=O)c2scc(C(=O)O)c2n1` [compound 1621] gave an IC50 [1] of 72.1 nM.

`Cc1nc2c(N(C)C3CCN(C)CC3F)ncc(C#N)c2c(=O)n1CCOc1ccc(Cl)cc1-c1ccnc2c(C(=O)O)csc12` (stereo not drawn) [compound 862] showed an IC50 [2] of under 50 nM and an IC50 [3] of 20.9 nM.

With `Cc1sc2c(-c3cc(Cl)ccc3OCCn3c(C)nc4cc(C(F)(F)F)c(N5CCN(C)CC5)c(C#N)c4c3=O)ccc(F)c2c1C(=O)O` [compound 1286] the IC50 [1] was 34.2 nM.

`Cc1cc(-c2cc(Cl)ccc2OCCn2c(C)nc3cc(C(F)(F)F)c(-c4ccnc(C)n4)nc3c2=O)c2scc(C(=O)O)c2n1` [compound 769] gave an IC50 [2] of under 50 nM and an IC50 [3] of 23.9 nM.

`Cc1cc(-c2cc(Cl)ccc2OCCn2c(C)nc3cc(C(F)(F)F)c(-c4cncnc4)nc3c2=O)c2scc(C(=O)O)c2n1` [compound 768] gave an IC50 [2] of under 50 nM and an IC50 [3] of 22.4 nM.

`Cc1cc(-c2cc(Cl)ccc2OCCn2c(C)nc3cc(C(F)(F)F)c(-c4cc(C)nn4C)c(C#N)c3c2=O)c2scc(C(=O)O)c2n1` [compound 1028] was tested, and the IC50 [2] was under 50 nM and the IC50 [3] was 6.14 nM.

Molecule `Cc1nc2cnc(NC3CCCC3)cc2c(=O)n1CCOc1ccc(Cl)cc1-c1cccc(C(=O)O)c1` [compound 2005] has an IC50 [1] of 364 nM.

Molecule `Cc1cc(-c2cc(Cl)ccc2OCCn2c(C)nc3cnc(N)c(C#N)c3c2=O)c2scc(C(=O)O)c2n1` [compound 1072] has an IC50 [2] of under 50 nM and an IC50 [3] of 37.2 nM.

Work on `Cc1nc2cnc(N3CCN(CCOC(F)(F)F)CC3)c(C#N)c2c(=O)n1CC#Cc1ccc(Cl)cc1-c1ccnc2c(C(=O)O)csc12` [compound 1161] yielded an IC50 [2] of under 50 nM and an IC50 [3] of 19.5 nM.

Work on `CCc1cc(-c2cc(Cl)ccc2OCCn2c(C)nc3cc(C(F)(F)F)c(-c4ccn(C)n4)c(C#N)c3c2=O)c2scc(C(=O)O)c2n1` [compound 1014] yielded an IC50 [2] of under 50 nM and an IC50 [3] of 25.6 nM.

For `Cc1nc2cnc(N3CCN(C4CC(F)(F)C4)CC3)c(C#N)c2c(=O)n1CCOc1ccc(Cl)cc1-c1ccnc2c(C(=O)O)csc12` [compound 1307], the IC50 [1] was 54.2 nM.

With `Cc1nc2cnc(N3CCN(C)C4(COC4)C3)c(C#N)c2c(=O)n1CCOc1ccc(Cl)cc1-c1ccnc2c(C(=O)O)csc12` [compound 1351] the IC50 [1] was 16 nM.

For `Cc1nc2c(C(F)F)nc(C#N)cc2c(=O)n1CCOc1ccc(Cl)cc1-c1cccc(C(=O)O)c1` [compound 33], the IC50 [2] was 50 to 1000 nM and the IC50 [3] was 203 nM.

`Cc1cc(-c2cc(Cl)ccc2OCCn2c(C)nc3c(C)nc(-c4cc(F)ccc4C)c(C#N)c3c2=O)c2scc(C(=O)O)c2n1` [compound 927] showed an IC50 [2] of under 50 nM and an IC50 [3] of 6.34 nM.

Molecule `Cc1nc2cnc(N3CCN(CC(F)C(F)(F)F)CC3)c(C#N)c2c(=O)n1CCOc1ccc(Cl)cc1-c1ccnc2c(C(=O)O)csc12` (stereo not drawn) [compound 1358] has an IC50 [1] of 18.3 nM.

For `Cc1ccc(F)c(-c2ncc3cc(C)n(CCOc4ccc(Cl)cc4-c4cc(C)nc5c(C(=O)O)csc45)c(=O)c3c2C#N)n1` [compound 1000], the IC50 [2] was under 50 nM and the IC50 [3] was 16.7 nM.

Molecule `CONC(=O)c1csc2c(-c3cc(Cl)ccc3OCCn3c(C)nc4cc(C(F)(F)F)c(Cl)c(C#N)c4c3=O)ccnc12` [compound 521] has an IC50 [2] of 50 to 1000 nM and an IC50 [3] of 623 nM.

For `Cc1nc2cnc(C3=CCN(CC(F)(F)F)CC3)c(C#N)c2c(=O)n1CCOc1ccc(Cl)cc1-c1ccnc2c(C(=O)O)csc12` [compound 889], the IC50 [2] was under 50 nM and the IC50 [3] was 12.4 nM.

`Cc1cc(-c2cc(Cl)ccc2OCCn2c(C)nc3cc(C(F)(F)F)c(CN4CCS(=O)(=O)CC4)c(C#N)c3c2=O)c2scc(C(=O)O)c2n1` [compound 1377] was tested, and the IC50 [1] was 44 nM.

`Cc1nc2cnc(/C=C/CN(C)CCF)c(C#N)c2c(=O)n1CC#Cc1ccc(Cl)cc1-c1ccnc2c(C(=O)O)csc12` [compound 1402] gave an IC50 [1] of 6.58 nM.

In the case of `Cc1cc2cc(C(F)(F)F)cc(C#N)c2c(O)c1CCOc1ccc(Cl)cc1-c1ccnc2c(C(=O)O)csc12` [compound 1976], the IC50 [1] is reported as 1850 nM.

`Cc1cc(-c2cc(Cl)ccc2OCCn2c(C)nc3cc(C(F)(F)F)c(C4=CCN(C)CC4)c(C#N)c3c2=O)c2sc(C)c(C(=O)O)c2n1` [compound 1417] showed an IC50 [1] of 24.9 nM.

`Cc1nc2cc(C(F)(F)F)c(N3CCN(CC(F)F)CC3)c(C#N)c2c(=O)n1CCOc1ccc(Cl)cc1-c1ccnc2c(C(=O)O)csc12` [compound 1239] gave an IC50 [2] of under 50 nM and an IC50 [1] of 18.2 nM.
